Experimental data taken from ChEMBL document CHEMBL3885881, “DrugMatrix”.

Organism: Rattus norvegicus
Experiment: DrugMatrix - Regimen: Daily Repeat
Assay type: toxicity, organism-based, Sprague-Dawley
Design: regimen Daily Repeat, gender Male, age 6-8 weeks
Conditions: in vivo, iv, vehicle 100 % SALINE; for ABSOLUTE MONOCYTE / ABSOLUTE SEGMENTED NEUTROPHIL / BASOPHIL / EOSINOPHIL / ERYTHROCYTE COUNT / HEMATOCRIT / HEMOGLOBIN / LEUKOCYTE COUNT / LYMPHOCYTE / MEAN CORPUSCULAR HEMOGLOBIN / MEAN CORPUSCULAR HEMOGLOBIN CONCENTRATION / MEAN CORPUSCULAR VOLUME / MONOCYTE / NEUTROPHIL / NUCLEATED RED BLOOD CELLS / PLATELET COUNT / ABSOLUTE BASOPHIL / ABSOLUTE EOSINOPHIL / ABSOLUTE LYMPHOCYTE: tissue Blood; for ALANINE AMINOTRANSFERASE / ALBUMIN / ALKALINE PHOSPHATASE / ASPARTATE AMINOTRANSFERASE / BLOOD UREA NITROGEN / CARBON DIOXIDE / CHLORIDE / CHOLESTEROL / CREATINE PHOSPHOKINASE / CREATININE / GLUCOSE / LACTATE DEHYDROGENASE / LIPASE / PHOSPHORUS / POTASSIUM / SODIUM / TOTAL BILIRUBIN / TOTAL PROTEIN / URIC ACID: tissue Plasma
[1] = 20 mg/kg, 120 h, dose level Low, time 5 day
[2] = 82 mg/kg, 72 h, dose level High, time 3 day
[3] = 82 mg/kg, 120 h, dose level High, time 5 day

NCC[C@H](O)C(=O)N[C@@H]1C[C@H](N)[C@@H](O[C@H]2O[C@H](CN)[C@@H](O)[C@H](O)[C@H]2O)[C@H](O)[C@H]1O[C@H]1O[C@H](CO)[C@@H](O)[C@H](N)[C@H]1O [AMIKACIN]
ABSOLUTE MONOCYTE [1]: 11 CELLS/uL | ABSOLUTE SEGMENTED NEUTROPHIL [1]: 480 CELLS/uL | BASOPHIL [1]: 0% | EOSINOPHIL [1]: 0% | ERYTHROCYTE COUNT [1]: 5.48 x10E6/uL | HEMATOCRIT [1]: 33% | HEMOGLOBIN [1]: 12.63 G/DL | LEUKOCYTE COUNT [1]: 3.67 x10E3/uL | LYMPHOCYTE [1]: 86.67% | MEAN CORPUSCULAR HEMOGLOBIN [1]: 23 pg | MEAN CORPUSCULAR HEMOGLOBIN CONCENTRATION [1]: 38.3 G/DL | MEAN CORPUSCULAR VOLUME [1]: 60.1 fL | MONOCYTE [1]: 0.33% | NEUTROPHIL [1]: 13% | NUCLEATED RED BLOOD CELLS [1]: 0 /100WBC | PLATELET COUNT [1]: 622.33 x10E3/uL | ALANINE AMINOTRANSFERASE [1]: 72.67 u/L | ALBUMIN [1]: 3.63 G/DL | ALKALINE PHOSPHATASE [1]: 187.33 u/L | ASPARTATE AMINOTRANSFERASE [1]: 329.33 u/L | BLOOD UREA NITROGEN [1]: 16 mg/dL | CARBON DIOXIDE [1]: 32.67 mmol/L | CHLORIDE [1]: 98.67 MEQ/L | CHOLESTEROL [1]: 81.33 mg/dL | CREATINE PHOSPHOKINASE [1]: 388 u/L | CREATININE [1]: 0.13 mg/dL | GLUCOSE [1]: 162.67 mg/dL | LACTATE DEHYDROGENASE [1]: 112 u/L | LIPASE [1]: 9.67 u/L | PHOSPHORUS [1]: 10.23 mg/dL | POTASSIUM [1]: 5.93 MEQ/L | SODIUM [1]: 142.37 MEQ/L | TOTAL BILIRUBIN [1]: 0.1 mg/dL | TOTAL PROTEIN [1]: 5.3 G/DL | URIC ACID [1]: 0.53 mg/dL | ABSOLUTE BASOPHIL [2]: 0 CELLS/uL | ABSOLUTE EOSINOPHIL [2]: 29 CELLS/uL | ABSOLUTE LYMPHOCYTE [2]: 10165.67 CELLS/uL | ABSOLUTE MONOCYTE [2]: 121.67 CELLS/uL | ABSOLUTE SEGMENTED NEUTROPHIL [2]: 950.33 CELLS/uL | BASOPHIL [2]: 0% | EOSINOPHIL [2]: 0.33% | ERYTHROCYTE COUNT [2]: 5.81 x10E6/uL | HEMATOCRIT [2]: 35.97% | HEMOGLOBIN [2]: 13.7 G/DL | LEUKOCYTE COUNT [2]: 11.27 x10E3/uL | LYMPHOCYTE [2]: 90% | MEAN CORPUSCULAR HEMOGLOBIN [2]: 23.6 pg | MEAN CORPUSCULAR HEMOGLOBIN CONCENTRATION [2]: 38.1 G/DL | MEAN CORPUSCULAR VOLUME [2]: 61.93 fL | MONOCYTE [2]: 1% | NEUTROPHIL [2]: 8.67% | NUCLEATED RED BLOOD CELLS [2]: 0.33 /100WBC | PLATELET COUNT [2]: 1125.33 x10E3/uL | ALANINE AMINOTRANSFERASE [2]: 50.67 u/L | ALBUMIN [2]: 4.17 G/DL | ALKALINE PHOSPHATASE [2]: 370.33 u/L | ASPARTATE AMINOTRANSFERASE [2]: 84 u/L | BLOOD UREA NITROGEN [2]: 14.33 mg/dL | CARBON DIOXIDE [2]: 35 mmol/L | CHLORIDE [2]: 98.67 MEQ/L | CHOLESTEROL [2]: 74.33 mg/dL | CREATINE PHOSPHOKINASE [2]: 385.33 u/L | CREATININE [2]: 0.18 mg/dL | GLUCOSE [2]: 178.33 mg/dL | LACTATE DEHYDROGENASE [2]: 142.67 u/L | LIPASE [2]: 9 u/L | PHOSPHORUS [2]: 11.27 mg/dL | POTASSIUM [2]: 6 MEQ/L | SODIUM [2]: 143.33 MEQ/L | TOTAL BILIRUBIN [2]: 0.2 mg/dL | TOTAL PROTEIN [2]: 5.97 G/DL | URIC ACID [2]: 0.7 mg/dL | ABSOLUTE BASOPHIL [3]: 0 CELLS/uL | ABSOLUTE EOSINOPHIL [3]: 0 CELLS/uL | ABSOLUTE LYMPHOCYTE [3]: 6237.33 CELLS/uL | ABSOLUTE MONOCYTE [3]: 19 CELLS/uL | ABSOLUTE SEGMENTED NEUTROPHIL [3]: 743.67 CELLS/uL | BASOPHIL [3]: 0% | EOSINOPHIL [3]: 0% | ERYTHROCYTE COUNT [3]: 5.27 x10E6/uL | HEMATOCRIT [3]: 33.87% | HEMOGLOBIN [3]: 13.13 G/DL | LEUKOCYTE COUNT [3]: 7 x10E3/uL | LYMPHOCYTE [3]: 89.33% | MEAN CORPUSCULAR HEMOGLOBIN [3]: 24.93 pg | MEAN CORPUSCULAR HEMOGLOBIN CONCENTRATION [3]: 38.8 G/DL | MEAN CORPUSCULAR VOLUME [3]: 64.2 fL | MONOCYTE [3]: 0.33% | NEUTROPHIL [3]: 10.33% | NUCLEATED RED BLOOD CELLS [3]: 0.33 /100WBC | PLATELET COUNT [3]: 1177.67 x10E3/uL | ALANINE AMINOTRANSFERASE [3]: 59.67 u/L | ALBUMIN [3]: 3.9 G/DL | ALKALINE PHOSPHATASE [3]: 382 u/L | ASPARTATE AMINOTRANSFERASE [3]: 82 u/L | BLOOD UREA NITROGEN [3]: 17.33 mg/dL | CARBON DIOXIDE [3]: 32.33 mmol/L | CHLORIDE [3]: 100 MEQ/L | CHOLESTEROL [3]: 63.67 mg/dL | CREATINE PHOSPHOKINASE [3]: 235.67 u/L | CREATININE [3]: 0.15 mg/dL | GLUCOSE [3]: 160.67 mg/dL | LACTATE DEHYDROGENASE [3]: 113.33 u/L | LIPASE [3]: 9.33 u/L | PHOSPHORUS [3]: 10.73 mg/dL | POTASSIUM [3]: 5.04 MEQ/L | SODIUM [3]: 143.97 MEQ/L | TOTAL BILIRUBIN [3]: 0.17 mg/dL | TOTAL PROTEIN [3]: 5.83 G/DL | URIC ACID [3]: 0.5 mg/dL
